Values quoted from earlier work in patent US20140283166A1, “CREATION AND TRANSMISSION OF MEGALOCI” (Monsanto Technology, LLC, priority 2013, published 2014).
Where two headings read alike, the source gives them in different places.

System: Arabidopsis

Q: For `COc1cccc(C(N)=O)c1` [3-methoxybenzamide], which “effect on genetic distance around centromeres” value (from here on “effect”) (2 mM) is on record?
A: The value was “increase the genetic distance around centromeres”.

Q: With `Nc1ncn([C@H]2C[C@H](O)[C@@H](CO)O2)c(=O)n1` [5-aza-2′-deoxycytidine] as the molecule, how does the “effect” value (25 or 100 mg/L) read?
A: The value was “increase the genetic distance around centromeres”.

Q: Which “effect” value (100 μM) does the source give for `CCN(N=O)C(N)=O` [N-nitroso-N-ethylurea] here?
A: The value was “increase the genetic distance around centromeres”.

Q: For `Cc1c(N)nc([C@H](CC(N)=O)NC[C@H](N)C(N)=O)nc1C(=O)N[C@H](C(=O)N[C@H](C)[C@@H](O)[C@H](C)C(=O)N[C@H](C(=O)NCCC1=N[C@@H](c2nc(C(=O)NCCCCN=C(N)N)cs2)CS1)[C@@H](C)O)[C@@H](O[C@@H]1O[C@@H](CO)[C@@H](O)[C@H](O)[C@@H]1O[C@H]1O[C@H](CO)[C@@H](O)[C@H](OC(N)=O)[C@@H]1O)c1cnc[nH]1` [Zeocin], which “effect” value (1 μg/ml) is on record?
A: The value was “increase the genetic distance around centromeres”.

Q: With `N.N.[Cl][Pt][Cl]` [cis-diamminedichloroplatinum] as the molecule, how does the “effect” value (20 μg/ml) read?
A: Its value is “increase the genetic distance around centromeres”.

Q: For `CCOS(C)(=O)=O` [methanesulfonic acid ethyl ester], which “effect” value (0.05%) is on record?
A: Its value is “increase the genetic distance around centromeres”.

Q: For `COS(C)(=O)=O` [methanesulfonic acid methyl ester], which “effect” value (75 parts per million) is on record?
A: The value was “increase the genetic distance around centromeres”.

Q: Which “effect” value (10 mg/L) does the source give for `CO[C@@]12[C@H](COC(N)=O)C3=C(C(=O)C(C)=C(N)C3=O)N1C[C@@H]1N[C@@H]12` [mitomycin C] here?
A: Its value is “increase the genetic distance around centromeres”.

Q: With `CCCC(=O)O` [n-butyric acid] as the molecule, how does the “effect” value (20 μM) read?
A: The value was “increase the genetic distance around centromeres”.

Q: Which “effect” value (10 μM) does the source give for `CC(/C=C/C(=O)NO)=C\[C@@H](C)C(=O)c1ccc(N(C)C)cc1` [trichostatin A] here?
A: The value was “increase the genetic distance around centromeres”.
